Target: T1, PAF specific receptor binding site (human platelet membranes) (Homo sapiens, UniProt P25105)
T1 construct: platelet membranes at a drug concentration of 3 nM; from tissue; host or cells: human platelet plasma membranes
Assay: Inhibition of [3H]N-methylcarbamoyl-PAF binding to human platelet membranes
Details: drug concentration of 3 nM, trans configuration
Experimental: The ability of a compound of formula (I) to inhibit the PAF binding to its specific receptor binding site on rabbit or human platelet or PMN plasma membranes was measured by a recently developed assay.
The inhibition of ^3 [H]-PAF or ^3 [H]-N-methyl carbamoyl-TAF binding to the human or rabbit platelet or PMN plasma membrane by a PAF antagonist of formula (I) was determined by a method employing isotopic labeling and filtration techniques. Generally, a series of Tris-buffered solutions of the selected antagonist at predetermined concentrations were prepared. Each of these solutions contains 1 pmole of ^3 H-PAF, a known amount of the test antagonist, and a sufficient amount of the pH 7.5 Tris-buffer solution (10mM Tris, 0.25% bovine serum albumin, and 150 mM NaCl per ml water) to make the final volume of 1 ml. After adding into a set of test tubes each with 100 μg of the platelet plasma membrane suspension (S. B. Hwang, et. al., Biochemistry, Vol. 22 pp. 4756-4763, 1983) and one of the Tris-buffer solutions described above, the resulting mixture in each test tube was incubated at 0° C. for about one hours or until the reaction was complete. Two control samples, one of which (C1) contains all the ingredients described above except the antagonist and the other (C2) contains C1 plus a 100-fold excess of unlabeled PAF, were also prepared and incubated simultaneously with the test samples. After the incubation was completed, the contents of each test tube were filtered under vacuo through a Whatman GF/C fiberglass filter and the residue washed rapidly several times with a total of 20 ml cold (0°-5° C.) Tris-buffer solution. Each washed residue was then suspended in 10 ml scintillation solution (Aquasol 2, New England Nuclear, Conn.) and the radioactivity was counted in a Packard Tri-Carb 460CD Liquid Scintillation System. Defining the counts from a test sample as "Total binding with antagonist"; the counts from the control sample C1, as "Total binding C1 "; and the counts from the control sample C2 as "non-specific binding C2 ", the percent inhibition of each test antagonist can be determined by the following equations: [formula]

T1 sequence (P25105 whole entry): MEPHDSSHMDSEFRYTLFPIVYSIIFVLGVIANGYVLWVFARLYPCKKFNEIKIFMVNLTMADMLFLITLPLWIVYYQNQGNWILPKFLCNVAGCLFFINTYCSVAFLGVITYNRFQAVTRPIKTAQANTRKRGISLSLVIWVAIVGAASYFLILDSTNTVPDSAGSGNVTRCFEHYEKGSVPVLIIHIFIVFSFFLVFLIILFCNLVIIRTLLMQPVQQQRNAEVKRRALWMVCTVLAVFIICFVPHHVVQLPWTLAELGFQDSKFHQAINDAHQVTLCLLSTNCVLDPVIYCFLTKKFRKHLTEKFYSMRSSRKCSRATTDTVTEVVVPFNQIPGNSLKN

CCCOc1c(OCCCN2CCOCC2)cc([C@@H]2CC[C@@H](c3cc(OC)c(OC)c(OC)c3)O2)cc1S(=O)(=O)CC(C)=O [(-)-(2S,5S)-[3-(2-Oxopropylsulfonyl)-4-n-propoxy-5-{3-(1-morpholino)-n-propoxy}phenyl]-5-(3,4,5-trimethoxyphenyl)tetrahydrofuran]
inhibition at 0.003 µM: 41%

— patent US5114961A, “2,5-diaryl tetrahydrofurans and analogs thereof as PAF antagonists” (Merck & Co., Inc., priority 1990, dated 1992)
